Laboratory results from patent US6737383B1, “Herbicidal oxadiazolidines” (priority 1999, dated 2004).

Tests used:
[1] = test system: bedstraw; test: Test B pre/postemergence bedstraw; type: in vivo, Galium aparine; settings: for Plant response rating, Bedstraw: Postemergence
Method in brief: (§1)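 Herbicidal effect was estimated by eye on a ten-point control scale after plants spent twelve to sixteen days in a greenhouse following soil or foliar treatment. Foliar sprays targeted plants at one to four leaves; all doses were formulated in a non-phytotoxic solvent with surfactant.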

[2] = test system: blackgrass; test: Test B pre/postemergence blackgrass; type: in vivo, Alopecurus myosuroides
Method in brief: as §1

[3] = test system: surinam grass; test: Test B pre/postemergence surinam grass; type: in vivo, Brachiaria decumbens
Method in brief: as §1

[4] = test system: cocklebur; test: Test B pre/postemergence cocklebur; type: in vivo, Xanthium strumarium
Method in brief: as §1

[5] = test system: crabgrass; test: Test B pre/postemergence crabgrass; type: in vivo, Digitaria sanguinalis
Method in brief: as §1

[6] = test system: giant foxtail; test: Test B pre/postemergence giant foxtail; type: in vivo, Setaria faberii
Method in brief: as §1

[7] = test system: morningglory; test: Test B pre/postemergence morningglory; type: in vivo, Ipomoea hederacea
Method in brief: as §1

[8] = test system: pigweed; test: Test B pre/postemergence pigweed; type: in vivo, Amaranthus retroflexus
Method in brief: as §1

[9] = test system: sugar beet; test: Test B pre/postemergence sugar beet; type: in vivo, Beta vulgaris
Method in brief: as §1

[10] = test system: velvetleaf; test: Test B pre/postemergence velvetleaf; type: in vivo, Abutilon theophrasti
Method in brief: as §1

[11] = test system: wheat; test: Test B pre/postemergence wheat; type: in vivo, Triticum aestivum
Method in brief: as §1

[12] = test system: wild oat; test: Test B pre/postemergence wild oat; type: in vivo, Avena fatua
Method in brief: as §1

[13] = test system: purple nutsedge; test: Test B pre/postemergence purple nutsedge; type: in vivo, Cyperus rotundus
Method in brief: as §1

[14] = test system: rice; test: Test B flood test rice; type: in vivo, Oryza sativa
Method in brief: (§2)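 Plants were grown to the 2-leaf stage before treatment with test chemical, then held in a greenhouse for twelve to sixteen days. Injury was visually rated against untreated controls on a 0–10 scale, where 0 is no effect and 10 is complete control.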

[15] = test system: duck salad; test: Test B flood test duck salad; type: in vivo, Heteranthera limosa
Method in brief: as §2

[16] = test system: bamyardgrass; test: Test B flood test barnyardgrass; type: in vivo, Echinochloa crus-galli
Method in brief: as §2

[17] = Preemergence, Rate 62 g/ha, scale 0 to 10 (0 no effect, 10 complete control)
[18] = Preemergence, Rate 125 g/ha, scale of 0 to 10 where 0 is no effect and 10 is complete control
[19] = Postemergence, Rate 62 g/ha, scale 0 to 10, 0 is no effect, 10 is complete control
[20] = Postemergence, Rate 125 g/ha, scale of 0 to 10 where 0 is no effect and 10 is complete control
[21] = Postemergence, Rate 250 g/ha, scale of 0 to 10, 0 is no effect, 10 is complete control
[22] = Postemergence, Rate 500 g/ha, scale of 0 to 10 where 0 is no effect and 10 is complete control
[23] = Preemergence, Rate 500 g/ha, scale of 0 to 10 where 0 is no effect and 10 is complete control
[24] = Rate 62 g/ha, flood test species, Pre-emergence, visual evaluation after twelve to sixteen days
[25] = Rate 125 g/ha, under heading Pre-emergence, flood test species, visual evaluation after twelve to sixteen days
[26] = Rate 250 g/ha, Pre-emergence (flood test species), scale 0 to 10, 0 is no effect, 10 is complete control
[27] = Rate 500 g/ha, Pre-emergence section of Table B, 0 to 10 scale (0 no effect, 10 complete control)

With C#CC(C)n1c(=O)on(C(=O)N(c2ccccc2)C(C)C)c1=O (stereo not drawn) [Compound 609] the “Plant response rating, Bedstraw” value ([1]; Rate 62 g/ha, scale 0 to 10, 0 is no effect, 10 is complete control) was 0, the “Plant response rating, Bedstraw” value ([1]; Rate 125 g/ha, scale of 0 to 10 where 0 is no effect and 10 is complete control) was 0 and the “Bedstraw plant response rating” value [1, 17] was 4. For the same compound, the “Bedstraw plant response rating” value [1, 18] was 8, the “Bedstraw plant response rating (0 to 10 scale)” value ([1]; Preemergence, Rate 250 g/ha) was 8 and the “Plant response rating, Blackgrass” value [2, 19] was 5. The “Plant response rating, Blackgrass” value [2, 20] was 8, the “Blackgrass plant response rating” value [2, 21] was 8 and the “Plant response rating, Blackgrass” value [2, 22] was 8. The “Blackgrass plant response rating” value [2, 17] was 7, the “Blackgrass plant response rating” value [2, 18] was 8 and the “Blackgrass plant response rating (0 to 10 scale)” value ([2]; Preemergence, Rate 250 g/ha) was 9. The “Blackgrass plant response rating” value [2, 23] was 10, the “Plant response rating, B. signalgrass” value [3, 19] was 0 and the “Plant response rating, B. signalgrass” value [3, 20] was 1. For the same compound, the “B. signalgrass plant response rating” value [3, 21] was 5, the “Plant response rating, B. signalgrass” value [3, 22] was 8 and the “B. signalgrass plant response rating” value [3, 17] was 3. The “B. signalgrass plant response rating” value [3, 18] was 6, the “B. signalgrass plant response rating (0 to 10 scale, 0 is no effect, 10 is complete control)” value ([3]; Preemergence, Rate 250 g/ha) was 9 and the “B. signalgrass plant response rating” value [3, 23] was 10. For the same compound, the “Plant response rating, Cocklebur” value [4, 19] was 0, the “Plant response rating, Cocklebur” value [4, 20] was 1 and the “Cocklebur plant response rating” value [4, 21] was 2. For the same compound, the “Plant response rating, Cocklebur” value [4, 22] was 3, the “Cocklebur plant response rating” value [4, 17] was 0 and the “Cocklebur plant response rating” value [4, 18] was 0. For the same compound, the “Cocklebur plant response rating (0 to 10 scale)” value ([4]; Preemergence, Rate 250 g/ha) was 0, the “Plant response rating, Cocklebur” value [4, 23] was 3 and the “Plant response rating, Crabgrass” value [5, 19] was 5. The “Plant response rating, Crabgrass” value [5, 20] was 9, the “Crabgrass plant response rating” value [5, 21] was 9 and the “Crabgrass plant response rating” value [5, 17] was 7. The “Crabgrass plant response rating” value [5, 18] was 7, the “Plant response rating, Crabgrass” value [5, 23] was 9 and the “Plant response rating, Giant foxtail” value [6, 19] was 6. For the same compound, the “Plant response rating, Giant foxtail” value [6, 20] was 9, the “Giant foxtail plant response rating” value [6, 21] was 9 and the “Plant response rating, Giant foxtail” value [6, 22] was 9. The “Giant foxtail plant response rating” value [6, 17] was 10, the “Giant foxtail plant response rating” value [6, 18] was 10 and the “Plant response rating, Giant foxtail” value [6, 23] was 10. The “Plant response rating, Morningglory” value [7, 19] was 8, the “Plant response rating, Morningglory” value [7, 20] was 10 and the “Morningglory plant response rating” value [7, 21] was 10. The “Plant response rating, Morningglory” value [7, 22] was 10, the “Morningglory plant response rating” value [7, 17] was 0 and the “Morningglory plant response rating” value [7, 18] was 0. The “Plant response rating, Morningglory” value [7, 23] was 5, the “Plant response rating, Redroot pigweed” value [8, 19] was 0 and the “Plant response rating, Redroot pigweed” value [8, 20] was 0. For the same compound, the “Redroot pigweed plant response rating” value [8, 21] was 2, the “Plant response rating, Redroot pigweed” value [8, 22] was 9 and the “Redroot pigweed plant response rating” value [8, 17] was 8. The “Plant response rating, Redroot pigweed” value [8, 23] was 10, the “Plant response rating, Sugarbeets” value [9, 19] was 0 and the “Plant response rating, Sugarbeets” value [9, 20] was 0. For the same compound, the “Sugarbeets plant response rating” value [9, 21] was 0, the “Plant response rating, Sugarbeets” value [9, 22] was 1 and the “Sugarbeets plant response rating” value [9, 17] was 0. The “Sugarbeets plant response rating” value [9, 18] was 3, the “Plant response rating, Sugarbeets” value [9, 23] was 8 and the “Plant response rating, Velvetleaf” value [10, 19] was 3. The “Plant response rating, Velvetleaf” value [10, 20] was 3, the “Velvetleaf plant response rating” value [10, 21] was 7 and the “Plant response rating, Velvetleaf” value [10, 22] was 8. The “Velvetleaf plant response rating” value [10, 17] was 7, the “Velvetleaf plant response rating” value [10, 18] was 8 and the “Plant response rating, Velvetleaf” value [10, 23] was 9. For the same compound, the “Plant response rating, Wheat” value [11, 19] was 0, the “Plant response rating, Wheat” value [11, 20] was 0 and the “Wheat plant response rating” value [11, 21] was 2. For the same compound, the “Plant response rating, Wheat” value [11, 22] was 6, the “Wheat plant response rating” value [11, 17] was 0 and the “Wheat plant response rating” value [11, 18] was 0. For the same compound, the “Plant response rating, Wheat” value [11, 23] was 6, the “Plant response rating, Wild oats” value [12, 19] was 0 and the “Plant response rating, Wild oats” value [12, 20] was 0. The “Wild oats plant response rating” value [12, 21] was 0, the “Plant response rating, Wild oats” value [12, 22] was 4 and the “Wild oats plant response rating” value [12, 17] was 3. For the same compound, the “Wild oats plant response rating” value [12, 18] was 7, the “Plant response rating, Wild oats” value [12, 23] was 10 and the “Plant response rating, Nutsedge” value [13, 19] was 0. The “Plant response rating, Nutsedge” value [13, 20] was 0, the “Nutsedge plant response rating” value [13, 21] was 0 and the “Plant response rating, Nutsedge” value [13, 22] was 6. For the same compound, the “Nutsedge plant response rating” value [13, 17] was 0, the “Nutsedge plant response rating” value [13, 18] was 0 and the “Plant response rating, Nutsedge” value [13, 23] was 4. For the same compound, the “Plant response rating, Rice (0 to 10 scale, 0 is no effect, 10 is complete control)” value [14, 24] was 0, the “Rice plant response rating (0 to 10 scale, 0 is no effect, 10 is complete control)” value [14, 25] was 0 and the “Rice plant response rating” value [14, 26] was 0. The “Rice plant response rating” value [14, 27] was 0, the “Plant response rating, Ducksalad (0 to 10 scale, 0 is no effect, 10 is complete control)” value [15, 24] was 0 and the “Ducksalad plant response rating (0 to 10 scale, 0 is no effect, 10 is complete control)” value [15, 25] was 0. The “Ducksalad plant response rating” value [15, 26] was 0, the “Ducksalad plant response rating” value [15, 27] was 0 and the “Plant response rating, Barnyardgrass (0 to 10 scale, 0 is no effect, 10 is complete control)” value [16, 24] was 0. For the same compound, the “Barnyardgrass plant response rating (0 to 10 scale, 0 is no effect, 10 is complete control)” value [16, 25] was 0, the “Barnyardgrass plant response rating” value [16, 26] was 0 and the “Barnyardgrass plant response rating” value [16, 27] was 0.
